Assay results: US20150274639A1, “METHODS OF USE FOR COMPOSITIONS COMPRISING A BIOCIDAL POLYAMINE” (Curza Global, LLC, priority 2013, published 2015)
Values after ≈ are worked out from the molar mass of the structure shown. Values joined by “and” are separate entries in the source; they are usually repeats but may differ in a detail not shown here. Equal values may be shown once.

What was measured:
A. baumannii = experiment: MIC in CAMHB, 96-well plate (10^5 to 10^2 CFU/mL in 24 hours); assay type: cell-based, Acinetobacter baumannii
Experimental: (§1) To determine the MIC of polyamine compounds, the protocol described herein was used.
(§2) In brief, a 0.5 McFarland of each bacterial isolate was made. A 0.5 McFarland is a measure of turbidity in a liquid sample that contains approximately 1×10̂^8 CFU/mL. The 0.5 McFarland standard was diluted in cation adjusted Mueller Hinton Broth (CAMHB), and […], of broth were added to a well of a 96-well plate. In addition, 50 μL of CAMHB that contained a desired concentration of antimicrobial were also added to the well for a final volume of 100 and a final concentration of approximately 5×10^4 CFU/well (which equated to approximately 5×10^5 CFU/mL). Each well contained a desired amount of polyamine compound in order to experimentally determine the MIC. Each 96-well plate was incubated at 37° C. for 24 hours. The contents of each well were plated on tryptic soy agar (TSA). TSA plates were incubated for 37° C. for 24 hours after which the number of CFU were counted and used to calculate the CFU/mL that remained after exposure to varying concentrations of compound. This procedure was repeated n=8 times for each concentration of antimicrobial.
A 0.5 McFarland of A. baumannii is made. A 0.5 McFarland is a measure of turbidity in a liquid sample that contains approximately 7.5×10^7 CFU/mL. The 0.5 McFarland standard is diluted in CAMHB and 50 μL of broth is added to a well of a 96-well plate. In addition, 50 μL of CAMHB that contains a desired concentration of antimicrobial is added to the well for a final volume of 100 μL and a final concentration of approximately 5×10^4 CFU/well (which equates to approximately 5×10^5 CFU/mL). Each well contains a desired amount of CZ compound in order to experimentally determine the MIC. Each 96-well plate is incubated at 37° C. for 24 hours. The contents of each well is plated on tryptic soy agar (TSA). TSA plates is incubated at 37° C. for 24 hours after which the number of CFUs is counted and used to calculate the CFU/mL that remain after exposure to varying concentrations of compound. This procedure is repeated n=8 times for each concentration of antimicrobial. […]

P. aeruginosa = experiment: as above; assay type: cell-based; details: Pseudomonas aeruginosa
Experimental: as §1, §2

MRSA biofilm = experiment: MBEC, MBEC Inoculation Tray by Innovotech (to 10^2 CFU/peg in 24 hours); assay type: cell-based, methicillin-resistant Staphylococcus aureus; details: for MIC: Staphylococcus aureus, MRSA, Table 3A titled MICs, group head missing, values match MBEC; for MBEC, MRSA: Table 4
A. baumannii biofilm [1] = experiment: as above; assay type: cell-based, Acinetobacter baumannii; details: Table 4
From the text: To determine the MBEC of each polyamine compound, the MBEC Inoculation Tray by Innovotech, formerly known as the Calgary biofilm device, was used. Within this device, biofilms grow on the surface of polystyrene pegs, 96 of which are attached to a lid. These pegs are inserted into a flat bottom 96-well plate. In this instance, the MBEC of a molecule was defined as the concentration of compound (in μg/mL) required to reduce 10^5 or 10^6 CFU/peg (biofilm levels varied by isolate) to 10^2 CFU/peg in a 24-hour period.
Following the manufacturer's guidelines, biofilms were grown on the surface of each peg by first making a 0.5 McFarland of each isolate. The 0.5 McFarland was diluted 1:100 in CAMHB. Into each well of a flat bottom 96-well plate, 150 μL of broth were pipetted. The plate was shaken at 100 rpm for 24 hours (P. aeruginosa and A. baumannii) or 48 hours (MRSA). The pegs were then placed into a separate flat bottom 96-well plate for 10 seconds with 200 μL of phosphate buffered saline (PBS) in each well to remove nonadherent cells. The lid was then placed into a 96-well plate that contained varying concentrations of antimicrobial with 200 μL per well. The plate was incubated for 24 hours at 37° C. after which time 100 μL of broth were plated on TSA. TSA plates were incubated 24 hours at 37° C. and the number of CFU counted to calculate the CFU/peg. In this instance, the MBEC was defined as the concentration of antimicrobial required to reduce 10^5 or 10^6 CFU/peg to 10^2 CFU/peg in a 24 hour period.
To determine the MBEC, the MBEC Inoculation Tray by Innovotech, formerly known as the Calgary biofilm device, is used. Within this device, biofilms grow on the surface of polystyrene pegs, 96 of which are attached to a lid. These pegs are inserted into a flat bottom 96-well plate. In this instance, the MBEC of a molecule is defined as the concentration of compound required to reduce approximately 10^6 CFU/peg to approximately 10^2 CFU/peg in a 24-hour period.
Following the manufacturer's guidelines, biofilms are grown on the surface of each peg by first making a 0.5 McFarland of A. baumannii. The 0.5 McFarland is diluted 1:100 in CAMHB broth. Into each well of a flat bottom 96-well plate, 150 μL of broth is pipetted. The plate is shaken at 100 rpm for 24 hours. The pegs are placed into a separate flat bottom 96-well plate for 10 seconds with 200 μL of phosphate buffered saline (PBS) in each well to remove nonadherent cells. The lid is placed into a 96-well plate that contains varying concentrations of antimicrobial with 200 μL of broth per well. The plate is incubated for 24 hours at 37° C. after which time 100 μL of broth is plated on TSA. TSA plates is incubated 24 hours at 37° C. and the number of CFU counted to calculate the CFU/peg.
MBEC data were collected using the MBEC Inoculation Tray by Innovotech. The MBEC was defined in these preliminary results as the concentration of antimicrobial required to reduce 10^5 or 10^6 CFU/peg to 10^2 CFU/peg in a 24-hour period.

A. baumannii biofilm [2] = experiment: as above; assay type: cell-based, Acinetobacter baumannii; details: Table 3B titled MICs, group head missing, values match MBEC; for MIC: Acinetobacter baumannii
[3] = Acinetobacter baumannii, Table 3A
[4] = Acinetobacter baumannii, Table 4
[5] = Table 3A, first P. aeruginosa column

Row | Compound | MIC (A. baumannii; [3]) [µg/mL] | MIC (A. baumannii; [4]) | MIC (P. aeruginosa; [5]) [µg/mL] | MIC (P. aeruginosa; Table 5, class symbols) [µM] | MIC (MRSA biofilm) [µg/mL] | MBEC, MRSA (MRSA biofilm) | MBEC, A. baumannii (A. baumannii biofilm [1]) | MIC (A. baumannii biofilm [2]) [µg/mL] | MIC, A. baumannii (A. baumannii; Table 3A) [µg/mL] | MIC (A. baumannii; Table 4) [µM] | MIC, A. baumannii (A. baumannii; Table 4) [µg/mL] | MIC, A. baumannii (A. baumannii biofilm [2]) [µg/mL]
1 | NCCCNCCCNCc1cccc(CNCCCNCCCN)c1 [CZ-25] | 150 | 150 µg/mL and 411 µM | 50 | > 100 | 25 (≈ 68.6 µM) | 25 μg/mL and 69 μM | 450 μg/mL and 1234 μM | 450 (≈ 1230 µM) | – | – | – | –
2 | NCCCNCCCNCc1cc(CNCCCNCCCN)cc(CNCCCNCCCN)c1 [CZ-52] | ~25 | 400 µg/mL and 800 µM | 17 | – | 20 (≈ 39.4 µM) | 20 μg/mL and 40 μM | > 500 μg/mL and 995 μM | 300 (≈ 591 µM) | – | – | – | –
3 | NCCCNCCCNCc1cc(CNCCCNCCCN)cc(-c2ccccc2)c1 [CZ-58] | – | 30 µg/mL and 68 µM | – | < 50 | – | 30 μg/mL and 68 μM | > 50 μg/mL and > 113 μM | – | – | – | – | –
4 | Polymyxin B sulfate [reference compound] | – | – | – | – | – | – | 50 μg/mL and 36 μM | – | 2 | 0.7 | 1 | 50
